Measurements published in patent US10458996B1, “Methods for determining clinical response to TNF-alpha and/or JAK inhibitors in subjects with inflammatory diseases” (Beth Israel Deaconess Medical Center, Inc., priority 2016, dated 2019).

System: intestinal mucosal explants from patients with IBD
Assay: Ex vivo infliximab treatment of intestinal mucosal explant cultures, cytokines in supernatant by multiplex ELISA
Assay type: cell-based, human
Conditions: for number of cytokines down-regulated in the ex vivo assay: mean±SEM; for ex vivo response rate / ex vivo response rate (patients): responder = down-regulation of >2 cytokines
Experimental: During a hospital visit for an endoscopic procedure that was part of their standard care, patients were asked by the study coordinator whether they were willing to participate in this research study and sign the informed consent approved by the Institution's Committee on Clinical Investigations. From each patient, four extra punch biopsies were taken from the macroscopically most diseased areas of the inflamed intestinal mucosa, put on ice and transferred to the lab within 30 minutes of their harvesting.
From each patient, intestinal mucosal biopsies were minced into several pieces and distributed in 8 wells of a 96-well plate in 250 μl of Dulbecco's Modified Eagle Medium (DMEM) supplemented with 10% FBS and antibiotic-antimycotic (Life Technologies, CA). Half of the cultures were treated with infliximab (REMICADE®; 0.5 mg/ml; Janssen Biotech, Inc, NJ) and the plate was incubated at 37° C. in a humidified chamber of 95% O2/5% CO2 for 18 hours. Culture supernatants were collected, filtered and stored at −80° C. […] Signal detection and analysis was performed by MAGPIX® (Luminex Corporation, TX).
Within each patient, differences in cytokine release between control and infliximab-treated cultures (n=4 per group) were assessed by the Mann-Whitney test. Cytokine changes in patients with CD (N=29) or UC (N=16) were expressed as mean±SEM and evaluated by unpaired t-test followed by Bonferroni correction for multiple comparisons. In rate or percentage comparisons a chi-square test was applied. The non-parametric Mann-Whitney test was chosen for the rest of two-group analyses. The STATView 2.0 software (SAS Institute) was used for all tests with the exception of the Receiver Operating Characteristic (ROC) analysis for which STATA13 was used.
The impact of anti-TNFα (infliximab) treatment was investigated in vitro using mucosal biopsy cultures derived from the most inflamed areas of the terminal ileum or colon of a total of 45 patients with IBD, 64% with CD and 36% with UC. At the time the biopsies were taken, 32 patients (71%) were receiving medications for their IBD and 16 of them were under an anti-TNFα regimen. The assay read-out consisted of a panel of 15 cytokines, chemokines and inflammatory mediators, and its design was based on previously reported biomarkers for CD and UC, on biomarkers that correlated with response to anti-TNFα treatment and on plausible TNF-alpha related biological mechanisms (Tracey et al., Rismo et al., Iskandar et al., Transl Res 159:313-325, 2012; Umehara et al., Hepatogastroenterology 53:879-882, 2006). For each patient and each cytokine, data were generated for the two conditions (plus/minus infliximab) using the median of 4 independent cultures.

[1] = Clinical Response Yes (n = 11), infliximab 0.5 mg/ml, 18 hours
[2] = Clinical Response Yes (n = 11), some values below detection limit or missing, infliximab 0.5 mg/ml, 18 hours
[3] = Mann-Whitney within each patient, 0.5 mg/ml, 18 hours
[4] = cohort 1, anti-TNFα naïve IBD patients
[5] = cohort 2, anti-TNFα exposed patients

For infliximab, the “IL-17A inhibition by ex vivo infliximab treatment, % patients” value (Clinical Response No (n = 17), some values below detection limit or missing, infliximab 0.5 mg/ml, 18 hours) was 0.0^∧ %, the “GM-CSF inhibition by ex vivo infliximab treatment, % patients” value [1] was 9.1% and the “GM-CSF inhibition by ex vivo infliximab treatment, N patients” value [1] was 1. The “IFNγ inhibition by ex vivo infliximab treatment, % patients” value [1] was 45.5%, the “IFNγ inhibition by ex vivo infliximab treatment, N patients” value [1] was 5 and the “IL-1β inhibition by ex vivo infliximab treatment, % patients” value [1] was 45.5%. The “IL-1β inhibition by ex vivo infliximab treatment, N patients” value [1] was 5, the “IL-2 inhibition by ex vivo infliximab treatment, % patients” value [1] was 45.5% and the “IL-2 inhibition by ex vivo infliximab treatment, N patients” value [1] was 5. The “IL-4 inhibition by ex vivo infliximab treatment, % patients” value [1] was 63.6%, the “IL-4 inhibition by ex vivo infliximab treatment, N patients” value [1] was 7 and the “IL-5 inhibition by ex vivo infliximab treatment, % patients” value [1] was 81.8%. The “IL-5 inhibition by ex vivo infliximab treatment, N patients” value [1] was 9, the “IL-6 inhibition by ex vivo infliximab treatment, % patients” value [1] was 0.0% and the “IL-6 inhibition by ex vivo infliximab treatment, N patients” value [1] was 0. For the same substance, the “IL-7 inhibition by ex vivo infliximab treatment, N patients” value [1] was 8, the “IL-8 inhibition by ex vivo infliximab treatment, % patients” value [1] was 0.0% and the “IL-8 inhibition by ex vivo infliximab treatment, N patients” value [1] was 0. The “IL-10 inhibition by ex vivo infliximab treatment, % patients” value [1] was 18.2%, the “IL-10 inhibition by ex vivo infliximab treatment, N patients” value [1] was 2 and the “IL-12p40 inhibition by ex vivo infliximab treatment, % patients” value [1] was 45.5%. For the same substance, the “IL-12p40 inhibition by ex vivo infliximab treatment, N patients” value [1] was 5, the “IL-12p70 inhibition by ex vivo infliximab treatment, % patients” value [1] was 27.3% and the “IL-12p70 inhibition by ex vivo infliximab treatment, N patients” value [1] was 3. The “IL-13 inhibition by ex vivo infliximab treatment, N patients” value [1] was 7, the “IL-17A inhibition by ex vivo infliximab treatment, % patients” value [1] was 72.7% and the “IL-17A inhibition by ex vivo infliximab treatment, N patients” value [1] was 8. For the same substance, the “MCP-1 inhibition by ex vivo infliximab treatment, % patients” value [1] was 9.1%, the “MCP-1 inhibition by ex vivo infliximab treatment, N patients” value [1] was 1 and the “IL-7 inhibition by ex vivo infliximab treatment, % patients” value [2] was 88.8%. The “IL-13 inhibition by ex vivo infliximab treatment, % patients” value [2] was 70.0%, the “number of cytokines per patient, besides TNFα, significantly inhibited ex vivo, maximum” value [3] was 12 and the “number of cytokines per patient, besides TNFα, significantly inhibited ex vivo, median” value [3] was 2. The “number of cytokines per patient, besides TNFα, significantly inhibited ex vivo, minimum” value [3] was 0, the “Changes in TNFα levels in culture supernatant” value (all patients tested, p<0.0001, 0.5 mg/ml, 18 hours) was “robustly down-regulated” and the “number of cytokines down-regulated in the ex vivo assay” value (clinical non-responders to anti-TNFα therapy) was 1.29±0.63. The “number of cytokines down-regulated in the ex vivo assay” value (clinical responders to anti-TNFα therapy) was 6.0±1.02, the “ex vivo inhibition of IL-17A, IL-7, IL-5 and IL-4/IL-13” value (clinical responders versus non-responders to anti-TNFα therapy) was “almost exclusively observed in the clinical responders” and the “ex vivo response rate” value [4] was 45.5%. The “ex vivo response rate (patients)” value [4] was 10/23, the “ex vivo response rate” value [5] was 43.5% and the “ex vivo response rate (patients)” value [5] was 10/22. The “magnitude of infliximab-mediated inhibition of the rest of cytokines (other than TNFα)” value (group means, CD and UC patients, 0.5 mg/ml, 18 hours) was under 30%, the “cytokines whose inhibition reached statistical significance” value (patients with CD (N=29), 0.5 mg/ml, 18 hours) was “IL-2 (p<0.001), IL-12p40 (p<0.05) and IL-5 (p<0.05)” and the “cytokines whose inhibition reached statistical significance” value (patients with UC (N=16), 0.5 mg/ml, 18 hours) was “IL-1β (p<0.05) and IL-7 (p<0.05)”.
